In ChEMBL document CHEMBL1201862, “PubChem BioAssay data set” (2004):
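Protocol summary: plate cells (96-well), add compound at 5 concentrations, incubate 48 h, interpolate endpoints linearly. GI50 marks 50% less growth.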 Calls of active or inactive are those of the source. No stated cut-off is given here; in the data, active = GI50 up to about 1.1 µM and inactive = higher.

Legend:
Assay in all cases: NCI anticancer screen, dose series, 48 h
NCI-H23 = test system: NCI-H23
HCC 2998 = test system: HCC 2998
SW-620 = test system: SW-620
RPMI-8226 = test system: RPMI-8226
NCI/ADR-RES = test system: NCI/ADR-RES
T47D = test system: T47D
LOX IMVI = test system: LOX IMVI
BT-549 = test system: BT-549
U-251 = test system: U-251
A549 = test system: A549
PC-3 = test system: PC-3
SR = test system: SR
A498 = test system: A498
HOP-62 = test system: HOP-62
NCI-H522 = test system: NCI-H522
TK-10 = test system: TK-10
K562 = test system: K562
SNB-75 = test system: SNB-75
OVCAR-4 = test system: OVCAR-4

Measured: GI50

Nc1ccc(S(=O)(=O)C23CC4CC(CC(C4)C2)C3)cc1
inactive: NCI-H23 > 100 µM | HCC 2998 > 100 µM | SW-620 > 100 µM | RPMI-8226 55.3 µM | NCI/ADR-RES > 100 µM | T47D 34.1 µM | LOX IMVI 70.8 µM | BT-549 > 100 µM | U-251 > 100 µM | A549 > 100 µM | PC-3 51.5 µM | SR 61.7 µM | A498 23.1 µM | HOP-62 > 100 µM | NCI-H522 > 100 µM | TK-10 > 100 µM | K562 89.5 µM

CC1CN(c2cc3c(cc2F)c(=O)c(C(=O)O)cn3-c2ccc(F)cn2)CC(C)N1 (stereo unspecified)
inactive: NCI-H23 > 100 µM | SW-620 > 100 µM | RPMI-8226 > 100 µM | NCI/ADR-RES > 100 µM | T47D > 100 µM | SNB-75 > 100 µM | LOX IMVI > 100 µM | BT-549 > 100 µM | U-251 > 100 µM | A549 > 100 µM | PC-3 > 100 µM | OVCAR-4 > 100 µM | SR > 100 µM | A498 > 100 µM | HOP-62 > 100 µM | NCI-H522 22.5 µM | TK-10 > 100 µM | K562 > 100 µM

Cc1nc2sc3cccc(Cl)c3n2c(=O)c1/N=N/c1ccc(Cl)cc1
inactive: NCI-H23 99.8 µM | SW-620 66.5 µM | RPMI-8226 > 100 µM | NCI/ADR-RES > 100 µM | T47D 45.3 µM | SNB-75 85.3 µM | LOX IMVI 58.1 µM | BT-549 93.8 µM | U-251 > 100 µM | A549 77.8 µM | PC-3 51.2 µM | OVCAR-4 > 100 µM | SR > 100 µM | A498 17.4 µM | HOP-62 75.2 µM | NCI-H522 45.7 µM | TK-10 > 100 µM | K562 63 µM

CC(=O)C(C(=N)C#N)C(=O)Nc1ccccc1 (stereo unspecified)
inactive: NCI-H23 > 100 µM | SW-620 > 100 µM | RPMI-8226 > 100 µM | NCI/ADR-RES > 100 µM | T47D > 100 µM | SNB-75 > 100 µM | LOX IMVI > 100 µM | BT-549 > 100 µM | U-251 > 100 µM | A549 > 100 µM | PC-3 > 100 µM | OVCAR-4 > 100 µM | SR > 100 µM | A498 > 100 µM | HOP-62 > 100 µM | NCI-H522 > 100 µM | TK-10 > 100 µM | K562 > 100 µM
